Test results taken from ChEMBL document CHEMBL1201862, “PubChem BioAssay data set” (2004).
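Test compounds were applied to cells in 96-well plates for 48 hours at 5 doses. Here, GI50 denotes the concentration required for 50% inhibition of growth.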 Calls of active or inactive are those of the source. Rule as the data show it: active = GI50 up to about 1.1 µM and inactive = higher.

Columns and labels:
Assay in all cases: NCI tumour cell line growth inhibition, 48 h
[1] = tested on: CAKI-1
[2] = tested on: CCRF-CEM
[3] = tested on: COLO 205
[4] = tested on: DLD-1
[5] = tested on: HCC 2998
[6] = tested on: HCT-15
[7] = tested on: HOP-92
[8] = tested on: HT-29
[9] = tested on: IGROV-1
[10] = tested on: K562
[11] = tested on: KM-20L2
[12] = tested on: KM12
[13] = tested on: M14
[14] = tested on: M19-MEL
[15] = tested on: MOLT-4
[16] = tested on: Malme-3M
[17] = tested on: NCI-H23
[18] = tested on: NCI-H522
[19] = tested on: OVCAR-3
[20] = tested on: OVCAR-4
[21] = tested on: OVCAR-5
[22] = tested on: OVCAR-8
[23] = tested on: RXF 393
[24] = tested on: RXF 631
[25] = tested on: SF-295
[26] = tested on: SK-MEL-28
[27] = tested on: SK-MEL-2
[28] = tested on: SK-MEL-5
[29] = tested on: SK-OV-3
[30] = tested on: SN12C
[31] = tested on: SNB-19
[32] = tested on: SNB-78
[33] = tested on: SR
[34] = tested on: SW-620
[35] = tested on: TK-10
[36] = tested on: U-251
[37] = tested on: UACC-62
[38] = tested on: UO-31
[39] = tested on: XF498
[40] = tested on: 786-0
[41] = tested on: A549
[42] = tested on: ACHN
[43] = tested on: DMS-114
[44] = tested on: DMS-273
[45] = tested on: EKVX
[46] = tested on: HCT-116
[47] = tested on: HL-60
[48] = tested on: HOP-18
[49] = tested on: HOP-62
[50] = tested on: LOX IMVI
[51] = tested on: LXFL 529
[52] = tested on: NCI-H226
[53] = tested on: NCI-H460
[54] = tested on: RPMI-8226
[55] = tested on: SF-268
[56] = tested on: SF-539
[57] = tested on: SNB-75
[58] = tested on: UACC-257
[59] = tested on: A498
[60] = tested on: DU-145
[61] = tested on: Hs-578T
[62] = tested on: MCF7
[63] = tested on: MDA-MB-231
[64] = tested on: MDA-MB-435
[65] = tested on: MDA-N
[66] = tested on: NCI/ADR-RES
[67] = tested on: PC-3
[68] = tested on: T47D

COc1ccccc1/C=C1\N=C(C)OC1=O
GI50 [1]: > 100 µM (inactive)
GI50 [2]: 56 µM (inactive)
GI50 [3]: > 100 µM (inactive)
GI50 [4]: > 100 µM (inactive)
GI50 [5]: > 100 µM (inactive)
GI50 [6]: > 100 µM
GI50 [7]: > 100 µM (inactive)
GI50 [8]: > 100 µM (inactive)
GI50 [9]: > 100 µM (inactive)
GI50 [10]: > 100 µM (inactive)
GI50 [11]: > 100 µM (inactive)
GI50 [12]: > 100 µM (inactive)
GI50 [13]: > 100 µM (inactive)
GI50 [14]: > 100 µM (inactive)
GI50 [15]: > 100 µM (inactive)
GI50 [16]: > 100 µM (inactive)
GI50 [17]: > 100 µM (inactive)
GI50 [18]: > 100 µM (inactive)
GI50 [19]: > 100 µM (inactive)
GI50 [20]: > 100 µM (inactive)
GI50 [21]: > 100 µM (inactive)
GI50 [22]: > 100 µM (inactive)
GI50 [23]: > 100 µM (inactive)
GI50 [24]: > 100 µM (inactive)
GI50 [25]: > 100 µM (inactive)
GI50 [26]: > 100 µM (inactive)
GI50 [27]: > 100 µM (inactive)
GI50 [28]: > 100 µM (inactive)
GI50 [29]: > 100 µM (inactive)
GI50 [30]: > 100 µM (inactive)
GI50 [31]: > 100 µM (inactive)
GI50 [32]: > 100 µM (inactive)
GI50 [33]: > 100 µM (inactive)
GI50 [34]: > 100 µM (inactive)
GI50 [35]: > 100 µM (inactive)
GI50 [36]: > 100 µM (inactive)
GI50 [37]: > 100 µM (inactive)
GI50 [38]: > 100 µM (inactive)
GI50 [39]: > 100 µM (inactive)

COc1cc2cnc3c4cc(OC)c(OC(C)C)cc4ccc3c2cc1OC
GI50 [40]: > 100 µM (inactive)
GI50 [41]: > 100 µM (inactive)
GI50 [42]: > 100 µM (inactive)
GI50 [1]: > 100 µM (inactive)
GI50 [2]: > 100 µM (inactive)
GI50 [3]: > 100 µM (inactive)
GI50 [4]: > 100 µM (inactive)
GI50 [43]: > 100 µM (inactive)
GI50 [44]: > 100 µM (inactive)
GI50 [45]: > 100 µM (inactive)
GI50 [5]: > 100 µM (inactive)
GI50 [46]: > 100 µM (inactive)
GI50 [6]: > 100 µM
GI50 [47]: > 100 µM (inactive)
GI50 [48]: > 100 µM (inactive)
GI50 [49]: > 100 µM (inactive)
GI50 [7]: > 100 µM (inactive)
GI50 [8]: > 100 µM (inactive)
GI50 [9]: > 100 µM (inactive)
GI50 [10]: > 100 µM (inactive)
GI50 [11]: > 100 µM (inactive)
GI50 [12]: > 100 µM (inactive)
GI50 [50]: > 100 µM (inactive)
GI50 [51]: > 100 µM (inactive)
GI50 [13]: > 100 µM (inactive)
GI50 [14]: > 100 µM (inactive)
GI50 [15]: > 100 µM (inactive)
GI50 [16]: > 100 µM (inactive)
GI50 [52]: > 100 µM (inactive)
GI50 [17]: > 100 µM (inactive)
GI50 [53]: > 100 µM (inactive)
GI50 [18]: > 100 µM (inactive)
GI50 [19]: > 100 µM (inactive)
GI50 [20]: > 100 µM (inactive)
GI50 [21]: > 100 µM (inactive)
GI50 [22]: > 100 µM (inactive)
GI50 [54]: > 100 µM (inactive)
GI50 [23]: > 100 µM (inactive)
GI50 [24]: > 100 µM (inactive)
GI50 [55]: > 100 µM (inactive)
GI50 [25]: > 100 µM (inactive)
GI50 [56]: > 100 µM (inactive)
GI50 [26]: > 100 µM (inactive)
GI50 [27]: > 100 µM (inactive)
GI50 [28]: > 100 µM (inactive)
GI50 [29]: > 100 µM (inactive)
GI50 [30]: > 100 µM (inactive)
GI50 [31]: > 100 µM (inactive)
GI50 [57]: > 100 µM (inactive)
GI50 [32]: > 100 µM (inactive)
GI50 [33]: > 100 µM (inactive)
GI50 [34]: > 100 µM (inactive)
GI50 [35]: > 100 µM (inactive)
GI50 [36]: > 100 µM (inactive)
GI50 [58]: > 100 µM (inactive)
GI50 [37]: > 100 µM (inactive)
GI50 [38]: > 100 µM (inactive)

O=C(NC(=O)c1ccccc1[N+](=O)[O-])Nc1ccc(Oc2ncc(Cl)cn2)c(C(F)(F)F)c1
GI50 [40]: < 0.01 µM (active)
GI50 [59]: < 0.01 µM (active)
GI50 [41]: 0.0183 µM (active)
GI50 [42]: 0.0789 µM (active)
GI50 [1]: < 0.01 µM (active)
GI50 [2]: 0.0154 µM (active)
GI50 [3]: 0.0184 µM (active)
GI50 [4]: < 0.0132 µM (active)
GI50 [43]: < 0.01 µM (active)
GI50 [44]: < 0.01 µM (active)
GI50 [60]: 0.0366 µM (active)
GI50 [45]: 0.126 µM (active)
GI50 [5]: 0.0209 µM (active)
GI50 [46]: 0.0124 µM (active)
GI50 [6]: < 0.0126 µM
GI50 [47]: < 0.01 µM (active)
GI50 [48]: 53.1 µM (inactive)
GI50 [49]: 0.0181 µM (active)
GI50 [7]: < 0.01 µM (active)
GI50 [8]: 0.0105 µM (active)
GI50 [61]: < 0.01 µM (active)
GI50 [9]: 0.0213 µM (active)
GI50 [10]: < 0.0336 µM (active)
GI50 [11]: < 0.0125 µM (active)
GI50 [12]: < 0.01 µM (active)
GI50 [50]: 0.0262 µM (active)
GI50 [51]: < 0.01 µM (active)
GI50 [13]: < 0.0115 µM (active)
GI50 [14]: < 0.0171 µM (active)
GI50 [62]: < 0.01 µM (active)
GI50 [63]: 0.0371 µM (active)
GI50 [64]: < 0.01 µM (active)
GI50 [65]: < 0.01 µM (active)
GI50 [15]: 0.047 µM (active)
GI50 [16]: < 0.01 µM (active)
GI50 [52]: 0.0191 µM (active)
GI50 [17]: 0.0257 µM (active)
GI50 [53]: < 0.01 µM (active)
GI50 [18]: < 0.01 µM (active)
GI50 [66]: < 0.01 µM (active)
GI50 [19]: < 0.01 µM (active)
GI50 [20]: 1.6 µM (inactive)
GI50 [21]: 0.0119 µM (active)
GI50 [22]: 0.0236 µM (active)
GI50 [67]: < 0.01 µM (active)
GI50 [54]: 0.0208 µM (active)
GI50 [23]: < 0.01 µM (active)
GI50 [55]: 0.0733 µM (active)
GI50 [25]: < 0.01 µM (active)
GI50 [56]: 0.0109 µM (active)
GI50 [26]: < 0.0104 µM (active)
GI50 [27]: < 0.01 µM (active)
GI50 [28]: < 0.01 µM (active)
GI50 [29]: < 0.01 µM (active)
GI50 [30]: 0.0873 µM (active)
GI50 [31]: 0.0218 µM (active)
GI50 [57]: < 0.01 µM (active)
GI50 [32]: < 0.01 µM (active)
GI50 [33]: 0.116 µM (active)
GI50 [34]: < 0.01 µM (active)
GI50 [68]: 22.1 µM (inactive)
GI50 [35]: 20.1 µM (inactive)
GI50 [36]: < 0.0121 µM (active)
GI50 [58]: < 0.01 µM (active)
GI50 [37]: < 0.01 µM (active)
GI50 [38]: 0.0281 µM (active)
GI50 [39]: 0.0103 µM (active)

O=C1Nc2nc3ccccc3n2N=C2CCCC12 (stereo unspecified)
GI50 [40]: > 100 µM (inactive)
GI50 [59]: > 100 µM (inactive)
GI50 [41]: > 100 µM (inactive)
GI50 [42]: > 100 µM (inactive)
GI50 [1]: > 100 µM (inactive)
GI50 [2]: > 100 µM (inactive)
GI50 [3]: > 100 µM (inactive)
GI50 [4]: > 100 µM (inactive)
GI50 [43]: > 100 µM (inactive)
GI50 [44]: > 100 µM (inactive)
GI50 [45]: > 100 µM (inactive)
GI50 [5]: > 100 µM (inactive)
GI50 [46]: > 100 µM (inactive)
GI50 [6]: > 100 µM
GI50 [49]: > 100 µM (inactive)
GI50 [8]: > 100 µM (inactive)
GI50 [9]: > 100 µM (inactive)
GI50 [10]: > 100 µM (inactive)
GI50 [11]: > 100 µM (inactive)
GI50 [12]: > 100 µM (inactive)
GI50 [50]: > 100 µM (inactive)
GI50 [51]: > 100 µM (inactive)
GI50 [13]: > 100 µM (inactive)
GI50 [14]: > 100 µM (inactive)
GI50 [15]: > 100 µM (inactive)
GI50 [16]: > 100 µM (inactive)
GI50 [17]: > 100 µM (inactive)
GI50 [53]: > 100 µM (inactive)
GI50 [19]: > 100 µM (inactive)
GI50 [20]: > 100 µM (inactive)
GI50 [21]: > 100 µM (inactive)
GI50 [22]: > 100 µM (inactive)
GI50 [54]: > 100 µM (inactive)
GI50 [23]: > 100 µM (inactive)
GI50 [24]: > 100 µM (inactive)
GI50 [55]: > 100 µM (inactive)
GI50 [25]: > 100 µM (inactive)
GI50 [56]: > 100 µM (inactive)
GI50 [26]: > 100 µM (inactive)
GI50 [27]: > 100 µM (inactive)
GI50 [28]: > 100 µM (inactive)
GI50 [29]: > 100 µM (inactive)
GI50 [30]: > 100 µM (inactive)
GI50 [31]: > 100 µM (inactive)
GI50 [57]: > 100 µM (inactive)
GI50 [32]: > 100 µM (inactive)
GI50 [34]: > 100 µM (inactive)
GI50 [35]: > 100 µM (inactive)
GI50 [36]: > 100 µM (inactive)
GI50 [58]: > 100 µM (inactive)
GI50 [37]: > 100 µM (inactive)
GI50 [38]: > 100 µM (inactive)
GI50 [39]: > 100 µM (inactive)
